{"source": "patent US10407488B2", "about": "“Therapy for treatment or prevention of conditions associated with bleeding or hypocoagulation” (THE REGENTS OF THE UNIVERSITY OF CALIFORNIA, priority 2013, dated 2019)", "test_system": "thrombin generation in patient plasma", "assay": "Thrombin generation in plasma of inhibitor patients before and 5 minutes after rhFVIIa infusion, ^superFVa added ex vivo", "format": "biochemical, human", "source_text": "Normal pooled human plasma and plasma from human FVIII-deficient patients with and without inhibitors (titer specified in Bethesda Units (BU)) was purchased from George King Bio-Medical (Overland Park, Kans., USA). In addition, plasma and clinical information was obtained from two patients with severe FVIII-deficiency (<1% intrinsic FVIII-activity levels) and inhibitors (titers determined in BU by the clinical laboratory using the Nijmegen assay (17) regularly visiting the Hemophilia Treatment Center at the University of California, San Diego (UCSD) after informed consent was obtained. Patient confidentiality safeguards, sample and data acquisition methods were approved by the UCSD Institutional Review Board. Blood was drawn into 3.8% sodium citrate (pH 5.5) at a 9:1 blood/anticoagulant volume ratio, and processed immediately. Plasma was collected and frozen at −80° C. after centrifugation at 2600×g for 15 minutes. The following reagents were used: Thrombin from Enzyme Research Laboratories (South Bend, Ind., USA), hirudin from Calbiochem (San Diego, Calif., USA), Corn trypsin inhibitor (CTI) from Enzyme Research Laboratories, thrombin calibrator from Synapse BV (distributed by Diagnostica Stago), Substrate Z-Gly-Gly-Arg-AMC from Bachem (Bubendorf Switzerland), recombinant human tissue factor (TF), Dade Innovin from Dade Behring (Newark, Del., USA), mouse anti-human FVIII (GMA8015) and isotype antibody (GMA650) from Green mountain antibodies (Burlington, Vt., USA), recombinant human FVIIa, NovoSeven®, from NovoNordisk (Bagsvaerd, Denmark), Phospholipid vesicles (80% phosphatidylcholine (PC), 20% phosphatidylserine (PS)) were purchased from Avanti Lipids (Alabaster, Ala., USA) and prepared as described (18).\nEndogenous thrombin potential (ETP) assays were performed as described (19). Briefly, plasma samples supplemented with CTI, TF, PCPS vesicles and coagulation factors were preincubated with the plasma at 37° C. Thrombin generation was initiated by addition of CaCl2 and Z-Gly-Gly-Arg-AMC in HBS/0.5% BSA. The final reaction mixture contained, 50% plasma, 0.2 pM TF, […] PCPS vesicles, 0.725 μM CTI, 0.5 mM Z-GGR-AMC and 7.6 mM CaCl2 in a total volume of 100 μL. In some experiments, 1.25 μg/ml anti-FVIII antibody was added to the plasma and ETP was determined after 1 hour of preincubation. Fluorescence was measured at excitation/emission wavelengths of […] using Gemini EM fluorescent plate reader (Molecular Devices). Fluorescence time course data were converted to nM thrombin as described (20). ETP, defined as the area under the curve (AUC) and the peak height were determined using Origin or GraphPad Prism software.\nThis example relates to the experiments the results of which are contained in FIG. 5. […]", "key": {"[1]": {"settings": "increasing ^superFVa added ex vivo, plasma before and 5 minutes after rhFVIIa infusion"}}}
{"substance": "^superFVa: engineered APC-resistant FVa variant (SEQ ID NO:4): R306Q, R506Q, R679Q, Cys609-Cys1691 disulfide, S2183A, B-domain deleted", "values": [{"measurement": "^superFVa concentration at which ETP plateaued", "setting": "Patient A, BU=64", "result": 10, "unit": "nM"}, {"measurement": "additional increase of ETP", "setting": "[1]", "result": "~3", "unit": "fold"}, {"measurement": "additional increase of peak height", "setting": "[1]", "result": "~3", "unit": "fold"}, {"measurement": "^superFVa concentration at which ETP plateaued", "setting": "patient with BU=64", "result": 1.76, "unit": "µg/mL"}]}
